Laboratory results as given in patent US11718628B2, “SREBP inhibitors comprising a 6-membered central ring” (Capulus Therapeutics, LLC, priority 2018, dated 2023).
Where two headings read alike, the source gives them in different places.

Legend:
[1] = In vivo pharmacokinetic properties in rats (IV and PO); design: species or system male Sprague Dawley rats; conditions: for % F (Bioavailability of oral delivery) / bioavailability: PO 10 mg/kg vs IV 2 mg/kg; for AUC(0-t) / clearance / half-life / Vd / bioavailability / Tmax: male, Sprague Dawley, rat, plasma; for clearance: read-out: Intravenous Delivery (IV) CL; for Vd: read-out: Intravenous Delivery (IV) Vd; for bioavailability: read-out: % F (Bioavailability of oral delivery); for Tmax: read-out: Oral Administration (PO) Tmax
Description: (§1) The in vivo pharmacokinetic properties of compounds by both intravenous and oral administration were evaluated in male Sprague Dawley rats or C57BL/6J mice.
(§2) Animals were housed in cages with clean bedding. Certified rodent diet was provided. Water was available ad libitum. Environmental controls for the animal room were set to maintain a temperature of 22° C. to 25° C., humidity of 40-70% RH, and a 12-hour light/12-hour dark cycle. Normal healthy animals certified by the attending veterinarian were selected and acclimatized for minimum three days prior to initiation of study.
Surgical Procedure for Jugular Vein Cannulation of Rats: Rats were anaesthetized with a single dose of ketamine 50 mg/kg i.p.+xylazine 6 mg/kg i.p. The right jugular vein was exposed, a loose ligature was placed caudally, and the cranial end of vein was ligated. A small incision was made between the ligatures into which the catheter (polyethylene 50 tubing of internal diameter 0.58 mm and outer diameter 0.96 mm) was inserted. The catheter was secured in place by tying the loose ligature around the catheterized vessel. A small incision was made in the scapular region to serve as the exit site of the catheter. The catheter was subcutaneously tunneled and exteriorized through scapular incision. A stay suture was placed in the scapular area. Patency was tested, and catheter was filled with a locking solution (heparinized saline) and sealed with a stainless steel plug. The incision was then sutured with sterile suturing material. Anti-septic solution was applied to the sutured site and animal was placed back in the home cage.
(§3) To evaluate pharmacokinetic properties of intravenous delivery, male Sprague Dawley rats were administered 2.00 mg compound/kg animal weight through the tail vein. The concentration of the compound in the plasma of the animals was evaluated at 0.083, 0.25, 0.5, 1, 2, 4, 8, 12 and 24 hr by taking blood samples from the cannulated jugular vein. For the C5Bl/6J mice, blood samples were collected through a capillary, guided in retro-orbital plexus.
To evaluate pharmacokinetic properties of oral delivery, rats (male Sprague Dawley rats) or mice (C5Bl/6J) were administered 10 mg compound/kg animal weight by mouth. The concentration of compound in the plasma of the animals was evaluated at 0.25, 0.5, 1, 2, 4, 6, 8, 12 and 24 hr by taking blood samples from the cannulated jugular vein (rats) or through a capillary, guided in retro-orbital plexus (mice).

[2] = test system: liver gene expression (ACACA, ACLY, FASN, LSS, PNPLA3); assay: Liver gene expression in mice after oral administration; type: in vivo; conditions: 30 mpk, vs vehicle
Description: (§4) The pharmacodynamic properties of selected compounds were evaluated in mice. The animals were housed in cages with clean bedding, and maintained and monitored for good health in accordance with Test Facility SOPs and at the discretion of the laboratory animal veterinarian. Certified rodent diet was provided. Food and water was available ad libitum. Environmental controls for the animal room were set to maintain a temperature of 22° C. to 25° C., humidity of 40-70% RH, and a 12-hour light/[…]. Normal healthy animals certified by the attending veterinarian were selected and acclimatized for minimum three days prior to initiation of study. Animals were identified with body markings.
(§5) Aliquots of the compounds being evaluated were weighed and triturated with 0.5% methylcellulose (with the addition of 5% N-methyl pyrrolidone when required to remove clumping, as for Z-806) to an appropriate dose concentration. Vials were labeled with the information about study number, test item, concentration and date of preparation. A description of appearance of formulation was recorded (e.g., color, turbidity, etc.). The composition of formulation vehicle was recorded. An aliquot of each dose solution was taken before the dosing began and after dosing was finished, and stored at approximately −20° C. or below for subsequent analysis. The animals were dosed orally through oral gavage needle, and time of dosing was recorded.
(§6) Liver Collection at 6 h or 24 h: Immediately after blood withdrawal for pharmacokinetic evaluation (at 6 or at 24 h), liver tissue was collected without perfusion. Animals were euthanized using carbon dioxide gas in a CO2 chamber. The whole blood was drained by cutting the both side jugular vein and abdominal aorta. The liver was separated out. All the liver samples were divided in two parts. The first part (200 mg approx.) was snap frozen using liquid nitrogen as soon as possible. These samples were immediately transferred to −80° C. for storage. The remaining part was weighed and used for bioanalysis.
RNA Processing and Gene Expression Analysis: Liver Tissue RNA was harvested with the RNEasy kit and 20-100 ng used to synthesize cDNA with random primers following the manufacturer's protocol. Quantitative PCR was performed on 1 pg to 100 ng cDNA for the following genes: ACACA, ACLY, FASN, LSS, PNPLA3. Gene expression levels were determined using ΔΔCT method comparing treated to vehicle treated samples as a baseline, and fold change calculated. The average value for all 5 genes above was averaged and termed to Total Fold Change The results from this evaluation are presented in Table 8.

[3] = Plasma and liver compound levels in mice after oral administration; type: in vivo; conditions: 30 mpk; for concentration at 6 h / concentration at 24 h: mouse, 30 mg/kg
Description: as §4, §5
After dosing, the mice were anesthetized using gaseous anesthesia. Blood samples were collected through a capillary, guided in retro-orbital plexus, at 6 h or at 24 h. Approximately 100 uL of blood was collected from each mouse, in pre-labeled tubes. The collected blood was stored on ice prior to centrifugation. Blood samples were then centrifuged within 1 hour of collection to separate plasma. Centrifugation was conducted at 2500×g for 15 minutes at 4° C. The plasma was separated and transferred to pre-labeled micro-centrifuge tubes and promptly frozen at −80±10° C. until bioanalysis.
as §6

[4] = Log D by octanol/aqueous buffer partitioning; type: physicochemical; conditions: pH 7.4, 1-octanol/buffer
Description: The Log D of selected compounds was evaluated by octanol/aqueous buffer partitioning. 500 μL of organic phase (1-octanol) was added to each well of a 2 mL deep well plate, followed by 500 μL of buffer and 15 μL of test compound in DMSO (0.15 mM). The plate was vortexed for 10 seconds and incubated at room temperature for 1 hr on a plate shaker at 200 rpm. After incubation, the samples were allowed to equilibrate for 20 min and then centrifuged at 4000 rpm for 30 min for complete phase separation. The distribution of test compound in buffer and octanol phase was analyzed by HPLC-UV. Log D=Log (Area of Octanol/Area of Buffer).

[5] = In vivo pharmacokinetic properties in mice (IV and PO); design: species or system C57BL/6J mice; conditions: mouse, in vivo
Description: as §1, §2, §3
[…] The concentration of compound in the plasma of the animals was evaluated at 0.25, 0.5, 1, 2, 4, 6, 8, 12 and 24 hr by taking blood samples from the cannulated jugular vein (rats) or through a capillary, guided in retro-orbital plexus (mice).

[6] = 10 mg/kg, heading: Oral Administration AUC0-last, PO, 10 mg/kg
[7] = IV, 2 mg/kg, read-out: Intravenous Delivery (IV) AUC0-last
[8] = IV, 2 mg/kg, read-out: Intravenous Delivery (IV) T1/2 (converted)
[9] = PO, 10 mg/kg, read-out: Oral Administration (PO) T1/2 (converted)
[10] = 1-octanol/aqueous buffer, read-out: LogD

SMILES | Intravenous Delivery (IV) CL ([1]; IV, 2 mg/kg) [mL/min/kg] | Intravenous Delivery (IV) T1/2 ([1]; IV, 2 mg/kg) [h] | Intravenous Delivery (IV) Vd ([1]; IV, 2 mg/kg) [L/kg] | % F (Bioavailability of oral delivery) [1] [%] | Oral Administration (PO) AUC0-last ([1]; PO, 10 mg/kg) | Oral Administration (PO) T1/2 ([1]; PO, 10 mg/kg) [h] | Oral Administration (PO) Tmax ([1]; PO, 10 mg/kg) [h] | Total Gene FC Time (6 h) [2] | Total Gene FC Time (24 h) [2] | Liver ng/mg (6 h) [3] [ng/mg] | Plasma ng/mL (6 h) [3] [ng/mL] | Liver ng/mg 24 h [3] [ng/mg] | Plasma ng/mL (24 h) [3] [ng/mL] | LogD [4] | AUC(0-t) [1, 6] [ng·h/mL] | AUC(0-t) [1, 7] [ng·h/mL] | clearance ([1]; IV, 2 mg/kg) [mL/min/kg] | half-life [1, 8] [min] | Vd ([1]; IV, 2 mg/kg) [L/kg] | bioavailability [1] [%] | other results
CC(C)(C)c1cc(-c2cccc(-c3ccc(C(=O)N4CCC(O)CC4)cc3Cl)c2)ccn1 [Compound Z-744] | 13.1 | 1.91 | 2.16 | 8.6 | 1058 | 2.35 | 2 | ++ (0.51-0.7509 = ++) | + (>0.751 = +) | >1000 | 100 to 1000 | >1000 | 100 to 1000 | 4.12 |  |  |  |  |  |  | 
CC(C)(O)c1cc(-c2cncc(-c3ccc(C(=O)N4CCC(O)CC4)cc3Cl)c2)ccn1 [Compound Z-796, (3-chloro-4-(2′-(2-hydroxypropan-2-yl)-[3,4′-bipyridin]-5-yl)phenyl)(4-hydroxypiperidin-1-yl)methanone] |  |  |  |  |  |  |  | + (>0.751 = +) | + (>0.751 = +) |  |  |  |  |  | 7140 | 3800 | 8.78 | 185 | 2.37 | 38 | half-life [1, 9]: 193 min; Tmax ([1]; PO, 10 mg/kg): 0.667 h; concentration at 6 h ([3]; liver, read-out: Liver ng/mg (6 h)): > 1e+06 ng/g; concentration at 24 h ([3]; liver, read-out: Liver ng/mg 24 h): < 100000 ng/g; concentration at 6 h ([3]; plasma, read-out: Plasma ng/mL (6 h)): 100 to 1000 ng/mL; concentration at 24 h ([3]; plasma, read-out: Plasma ng/mL (24 h)): < 100 ng/mL; LogD [4, 10]: 2.08
CC(C)(C)c1cc(-c2cncc(-c3ccc(NS(C)(=O)=O)cc3Cl)c2)ccn1 [Compound Z-803, N-(4-(2′-(tert-butyl)-[3,4′-bipyridin]-5-yl)-3-chlorophenyl)methanesulfonamide] |  |  |  |  |  |  |  |  |  |  |  |  |  |  | 2580 | 6160 | 5.2 | 292 | 2.18 | 8.3 | half-life [1, 9]: 262 min; Tmax ([1]; PO, 10 mg/kg): 3.33 h; LogD [4, 10]: 3.84
Cc1cc(C(=O)N2CCC(O)CC2)ccc1-c1cncc(-c2ccnc(C(C)(C)C)c2)c1 [Compound Z-817] | 5.24 | 3.11 | 1.41 | 13 | 3992 | 2.56 | 0.33 | + (>0.751 = +) | + (>0.751 = +) | 100 to 1000 | <100 | <100 | <100 | 3.36 |  |  |  |  |  |  | 
CC(C)(C)c1cc(-c2cncc(-c3c(Cl)cc(C(=O)N4CCC(O)CC4)cc3Cl)c2)ccn1 [Z-826] | 10.7 | 3.19 | 2.97 | 35 | 5387 | 3.05 | 1 | + (>0.751 = +) | ++ (0.51-0.7509 = ++) | >1000 | >1000 | >1000 | 100 to 1000 |  |  |  |  |  |  |  | % F (Bioavailability of oral delivery) [5]: 82%; Intravenous Delivery (IV) AUC0-last ([5]; iv, 2 mg/kg): 3930 ng·h/mL; Intravenous Delivery (IV) CL ([5]; iv, 2 mg/kg): 8.45 mL/min/kg; Intravenous Delivery (IV) T1/2 ([5]; iv, 2 mg/kg): 3.24 h; Intravenous Delivery (IV) Vd ([5]; iv, 2 mg/kg): 2.37 L/kg; Oral Administration (PO) AUC0-last ([5]; po, 10 mg/kg): 15000 ng·h/mL; Oral Administration (PO) T1/2 ([5]; po, 10 mg/kg): 6.2 h; Oral Administration (PO) Tmax ([5]; po, 10 mg/kg): 15 min
